Data: patent publication US10188625B2, “Combination of a retinoid and a diol and polyunsaturated fatty acid ester” (PIERRE FABRE DERMO-COSMETIQUE, priority 2015, dated 2019)

Assays:
[1] = tested on: retentional lesions (open and closed comedones); experiment: Clinical study (open) of creams: count of retentional lesions in subjects with mild to moderate acne; type: in vivo, human; conditions: topical cream (retinaldehyde 0.1% and/or Compound A 0.6%)
Source text: The clinical trial was an open study involving 60 subjects (men and women) between 12 and 35 years of age with mild to moderate acne for purposes of testing the tolerance and efficacy of Composition 2.
All of the participants initially had more than 10 retentional lesions (open and closed comedones) on their skin (excluding the nasal pyramid).
The cream was applied to the face (clean skin) in the evening by means of gentle massage.
The lesions were counted at T0 (before the first treatment), T3 weeks and T6 weeks according to the method described by Lucky (Lucky AW et al. (1996)).
The clinical trial was an open study involving 29 subjects (men and women) between 12 and 35 years of age with mild to moderate acne for purposes of testing the tolerance and efficacy of cream having the following composition:
All of the participants initially had more than 10 retentional lesions (open and closed comedones) on their skin.
The lesions were counted at T0, T3 weeks and T6 weeks.
The clinical trial was an open study involving 46 subjects (men and women) between 12 and 35 years of age with mild to moderate acne for purposes of testing the tolerance and efficacy of cream having the following composition:
The cream was applied to the face (clean skin) twice per day (morning and evening) by means of gentle massage.

[2] = tested on: genes responsible for differentiation in keratinocytes (human skin explants); experiment: Microarray analysis of differentiation genes in human skin explants treated topically with retinaldehyde; type: cell-based
Protocol: In these experiments, retinaldehyde was applied topically for 24 hours at a concentration of 0.025% dissolved in Myritol on human skin explants (of 3 donors) kept alive in culture medium (Dulbecco's Modified Eagle Medium (DMEM)+10% fetal bovine serum (FBS)). Myritol alone was used as the control. At the conclusion of this treatment, the RNA is extracted, inspected for quality, and analyzed by means of a microarray (Agilent Technology). They are averaged fold-change values below 1.8 (p<0.05). A fold change of −2.00 corresponds to a decrease in gene expression of about 50%.

[3] = tested on: keratinocyte proliferation; experiment: Keratinocyte proliferation; type: cell-based
[4] = tested on: genes responsible for differentiation in keratinocytes (human skin explants); experiment: Microarray analysis of differentiation genes in human skin explants treated topically with retinaldehyde; type: cell-based; conditions: 0.025% in Myritol, topical 24 hours
[5] = human skin explants (3 donors), control Myritol alone, p 0.115

In the case of `CC/C=C\C/C=C\C/C=C\CCCCCCCC(=O)OCC(O)CCCCCC` (centres unmarked) [Compound A], the “Change in mean number of retentional lesions” value (shortened to “Change in mean number”) ([1]; T = 3 weeks) is reported as −6% and the “Change in mean number” value ([1]; T = 6 weeks) is reported as −19%.

In the case of `CC1=C(/C=C/C(C)=C/C=C/C(C)=C/C=O)C(C)(C)CCC1` [Retinaldehyde, retinaldehyde], the “Change in mean number” value ([1]; T = 3 weeks) is reported as −23%, the “Change in mean number” value ([1]; T = 6 weeks) is reported as −37% and the “Fold change, KRTCAP3 (keratinocyte associated protein 3)” value ([2]; 0.025% in Myritol, topical 24 hours, human skin explants (3 donors), control Myritol alone, p 0.009) is reported as −1.81. The “Fold change, KRT6A (keratin 6A)” value ([2]; 0.025% in Myritol, topical 24 hours, human skin explants (3 donors), control Myritol alone, p 0.012) was −2.83, the “Fold change, KRT6C (keratin 6C)” value ([2]; 0.025% in Myritol, topical 24 hours, human skin explants (3 donors), control Myritol alone, p 0.015) was −3.61 and the “Fold change, FLJ46111 (keratin 8 pseudogene)” value ([2]; 0.025% in Myritol, topical 24 hours, human skin explants (3 donors), control Myritol alone, p 0.016) was −2.71. For the same molecule, the “Fold change, EPPK1 (epiplakin 1)” value ([2]; 0.025% in Myritol, topical 24 hours, human skin explants (3 donors), control Myritol alone, p 0.042) was −1.60, the “effect on keratinocyte differentiation” value ([2]; conclusion from gene modulation in human skin explants) was “inhibits keratinocyte differentiation” and the “effect on cell (keratinocyte) proliferation” value [3] was “does not increase cell proliferation”. The “number of keratins inhibited” value ([4]; human skin explants) was 11, the “number of targets of terminal keratinocyte differentiation inhibited” value ([4]; human skin explants) was 13 and the “Fold change, CNFN (cornifelin)” value ([4]; human skin explants (3 donors), control Myritol alone, p 0.004) was −1.56. For the same molecule, the “Fold change, KRT16 (keratin 16)” value ([4]; human skin explants (3 donors), control Myritol alone, p 0.027) was −2.63, the “Fold change, CDSN (corneodesmosin)” value ([4]; human skin explants (3 donors), control Myritol alone, p 0.052) was −1.49 and the “Fold change, DSG3 (desmoglein 3)” value ([4]; human skin explants (3 donors), control Myritol alone, p 0.056) was −1.77. The “Fold change, DSC1 (desmocollin 1)” value ([4]; human skin explants (3 donors), control Myritol alone, p 0.058) was −1.70, the “Fold change, DSG1 (desmoglein 1)” value ([4]; human skin explants (3 donors), control Myritol alone, p 0.070) was −1.68 and the “Fold change, EVPL (envoplakin)” value ([4]; human skin explants (3 donors), control Myritol alone, p 0.072) was −1.41. The “Fold change, UPK2 (uroplakin 2)” value ([4]; human skin explants (3 donors), control Myritol alone, p 0.091) was −1.53, the “Fold change, DSC3 (desmocollin 3)” value ([4]; human skin explants (3 donors), control Myritol alone, p 0.095) was −1.55 and the “Fold change, KRTAP11-1 (keratin associated protein 11-1)” value [4, 5] was −4.68. For the same molecule, the “Fold change, LCE3A (late cornified envelope 3A)” value [4, 5] was −2.73, the “Fold change, LCE3D (late cornified envelope 3D)” value ([4]; human skin explants (3 donors), control Myritol alone, p 0.271) was −1.90 and the “Fold change, KRTAP3-1 (keratin associated protein 3-1)” value ([4]; human skin explants (3 donors), control Myritol alone, p 0.288) was −2.09. For the same molecule, the “Fold change, KRT6B (keratin 6B)” value ([4]; human skin explants (3 donors), control Myritol alone, p 0.325) was −1.83, the “Fold change, KRT27 (keratin 27)” value ([4]; human skin explants (3 donors), control Myritol alone, p 0.372) was −2.66 and the “Fold change, KRT86 (keratin 86)” value ([4]; human skin explants (3 donors), control Myritol alone, p 0.472) was −2.19.
